How the values were obtained:
Trypanosoma cruzi [1] = assay: Antitrypanosomal activity against Trypanosoma cruzi Tulahuen amastigotes infected in mouse L929 cells assessed as reduction in infection level at 10 uM after 96 hrs by beta galactosidase reporter assay relative to control; format: functional; details: L929, 96 h
[2] = Cytotoxicity against mouse L929 cells assessed as reduction in cell viability after 96 hrs by alamar blue assay; format: cell-based; details: read-out: LC50
Trypanosoma cruzi [3] = assay: Antitrypanosomal activity against Trypanosoma cruzi Tulahuen amastigotes infected in mouse L929 cells after 96 hrs by beta galactosidase reporter assay; format: functional, organism-based; details: L929, 96 h
Trypanosoma cruzi [4] = assay: Antitrypanosomal activity against bloodstream trypomastigote stage of Trypanosoma cruzi Y infected in Swiss Webster mouse cardiac cells after 24 hrs; format: functional, organism-based
[5] = Cytotoxicity against Swiss Webster mouse cardiomyocyte assessed as reduction in cell viability after 24 hrs by PrestoBlue assay; parameters: species or system Cardiac Muscle Cell; details: cardiomyocytes, read-out: LC50
[6] = Selectivity index, ratio of LC50 for mouse L929 cells to EC50 for Trypanosoma cruzi Tulahuen amastigotes; format: toxicity; details: read-out: Selectivity Index
Vero = assay: Cytotoxic activity against African green monkey Vero cells; format: cell-based; details: Chlorocebus sabaeus
Trypanosoma cruzi [7] = assay: Antitrypanosomal activity against Trypanosoma cruzi Silvio X10/7 intracellular forms; format: functional, organism-based
[8] = Selectivity index, ratio of LC50 for Swiss Webster mouse cardiac cells to EC50 for bloodstream trypomastigote stage of Trypanosoma cruzi Y; format: toxicity; details: read-out: Selectivity Index

Row | SMILES | inhibition at 10 µM (Trypanosoma cruzi [1]) | CC50 at 96 h [2] | EC50 (Trypanosoma cruzi [3]) | EC50 (Trypanosoma cruzi [4]) | CC50 at 24 h [5] | selectivity ratio [6] | EC50 (Vero) | EC50 (Trypanosoma cruzi [7]) | selectivity ratio [8]
1 | COc1ccc(S(=O)(=O)NCc2ccccn2)c(C)c1C | 7.2% | > 200 µM | – | – | – | – | – | – | –
2 | CCOc1ccc(S(=O)(=O)NCc2cccnc2)c2ccccc12 | 1.1% | > 200 µM | – | – | – | – | – | – | –
3 | CCOc1ccc(S(=O)(=O)Nc2ccncc2)c(C)c1C | 3.6% | > 200 µM | – | – | – | – | – | – | –
4 | CCOc1ccc(S(=O)(=O)NCc2ccccn2)c(C)c1C | 3.6% | > 200 µM | – | – | – | – | – | – | –
5 | COc1ccc(S(=O)(=O)NCc2cccnc2)c2ccccc12 | 28% | > 200 µM | – | – | – | – | – | – | –
6 | COc1c(C)cc(S(=O)(=O)Nc2cccnc2)c(C)c1C | 2.1% | > 200 µM | – | – | – | – | – | – | –
7 | CCCOc1cc(C)c(S(=O)(=O)Nc2cccnc2)cc1C | 78% | > 200 µM | 13.2 µM | > 50 µM | > 100 µM | > 15 | – | – | –
8 | CCOc1ccc(S(=O)(=O)Nc2cccnc2)cc1CC | 3% | > 200 µM | – | – | – | – | – | – | –
9 | COc1ccc(S(=O)(=O)Nc2ccc(Cc3ccncc3)cc2)c2ccccc12 | 0% | > 200 µM | – | – | – | – | – | – | –
10 | COc1ccc2cc(S(=O)(=O)Nc3cccnc3)ccc2c1 | 41.1% | > 200 µM | 5.44 µM | > 50 µM | > 100 µM | > 36 | – | – | –
11 | CCOc1ccc(S(=O)(=O)Nc2cccnc2)c(C)c1C | 62% | > 200 µM | 14.8 µM | > 50 µM | > 100 µM | > 13.5 | – | – | –
12 | CCOc1ccc(S(=O)(=O)Nc2cccnc2)cc1C(C)(C)C | 1.9% | > 200 µM | – | – | – | – | – | – | –
13 | CCOc1ccc(S(=O)(=O)NCc2ccncc2)c(C)c1C | 65% | > 200 µM | 8.62 µM | > 50 µM | > 100 µM | > 23 | – | – | –
14 | COc1cc(C)c(S(=O)(=O)Nc2cccnc2)cc1C(C)C | 26.7% | > 200 µM | – | – | – | – | – | – | –
15 | CCOc1ccc(S(=O)(=O)Nc2cccnc2)c2ccccc12 | – | > 400 µM | > 25 µM | – | – | – | 50 µM | 5.5 µM | –
16 | CCOc1ccc(S(=O)(=O)Nc2ccncc2)c2ccccc12 | 0.1% | > 200 µM | – | – | – | – | – | – | –
17 | O=C(Cn1ccnc1[N+](=O)[O-])NCc1ccccc1 [BENZNIDAZOLE] | 89.3% | > 400 µM | 3.51 µM | 11.2 µM | > 1000 µM | > 114 | – | – | > 89
18 | CC1CS(=O)(=O)CCN1/N=C/c1ccc([N+](=O)[O-])o1 (centres undefined) [NIFURTIMOX] | – | – | – | – | – | – | 50 µM | 0.9 µM | –

Reference: ChEMBL document CHEMBL4118163, “Identification and preliminary structure-activity relationship studies of novel pyridyl sulfonamides as potential Chagas disease therapeutic agents” (Bioorg Med Chem Lett, 2018)
